The values below come from patent US6492137B1, “Response element compositions and assays employing same” (The Salk Institute for Biological Studies, priority 1989, dated 2002).

For one data set, the target named is T1, TRβ (Homo sapiens, UniProt P10828).
T1 sequence (P10828 1-461): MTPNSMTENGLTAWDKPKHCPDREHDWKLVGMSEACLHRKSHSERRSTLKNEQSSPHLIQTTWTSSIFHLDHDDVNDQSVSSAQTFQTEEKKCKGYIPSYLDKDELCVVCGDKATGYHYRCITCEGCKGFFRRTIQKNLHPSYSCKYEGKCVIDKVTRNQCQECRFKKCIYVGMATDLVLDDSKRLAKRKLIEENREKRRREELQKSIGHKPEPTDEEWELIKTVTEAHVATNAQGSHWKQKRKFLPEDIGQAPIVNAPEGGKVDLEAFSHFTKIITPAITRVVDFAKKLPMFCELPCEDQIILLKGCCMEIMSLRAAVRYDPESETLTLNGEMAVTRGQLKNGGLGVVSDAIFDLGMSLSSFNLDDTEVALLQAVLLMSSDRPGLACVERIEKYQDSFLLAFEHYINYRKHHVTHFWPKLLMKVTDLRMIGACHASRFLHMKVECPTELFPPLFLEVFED
Nature of the data set: Gel retardation DNA-binding assay with TRβ-expressing COS cell extracts. More on the design: expressed in transfected cells; host or cells: COS cells (whole-cell extract). The following applies: unlabeled competitor oligonucleotide; COS cells expressing TRβ. As to the method:
(§1) For DNA binding assays, COS cells were cultured in DMEM with 10% calf bovine serum and transfected by the calcium phosphate method with 20 μg of the pCMX receptor expression plasmid for 6 hours followed by a glycerol shock. After incubating the transfected COS cells for another 48 hours, the cells were harvested to prepare extracts for the DNA binding assay, carried out as described by Damm et al., Nature 339: 593-597 (1989). The extracts were made in 20 mM HEPES (pH 7.4), 0.4 M KCl, 2 mM DTT and 20% glycerol. A similar method was employed to prepare a whole cell extract from F9 stem cells. For the binding, 5 μg (COS) or 10 μg (F9) of proteins was incubated on ice for 20 minutes, first in 20 mM HEPES, 80 mM KCl, 1 mM DTT, 0.1% NP40, 2.5 μg of poly dI/dC, and 10% glycerol (cold competitor oligonucleotides, when included, were added during this pre-incubation period). Then 40 fmole of ^32P-labeled oligonucleotide probe (1-2×10^5 cpm, prepared by filling-in reaction using Klenow polymerase in the presence of α-^32P-dCTP) was added to the reaction mixture, followed by incubation at room temperature for 30 minutes. The receptor-DNA complexes were resolved by electrophoresis through 5% polyacrylamide gel containing 5% glycerol at 6 V/cm at room temperature.
Oligonucleotides listed in FIG. 3 were used as a probe to test specific DNA-binding of the RARα and TRβ in a gel retardation assay.
Using the mobility shift assay, the DNA-binding capacity of extracts from COS cells expressing TRβ and RARα to these sequences was also tested.

In a further data set the target is T2, RARα (Homo sapiens, UniProt P10276).
T2 sequence (P10276 1-462): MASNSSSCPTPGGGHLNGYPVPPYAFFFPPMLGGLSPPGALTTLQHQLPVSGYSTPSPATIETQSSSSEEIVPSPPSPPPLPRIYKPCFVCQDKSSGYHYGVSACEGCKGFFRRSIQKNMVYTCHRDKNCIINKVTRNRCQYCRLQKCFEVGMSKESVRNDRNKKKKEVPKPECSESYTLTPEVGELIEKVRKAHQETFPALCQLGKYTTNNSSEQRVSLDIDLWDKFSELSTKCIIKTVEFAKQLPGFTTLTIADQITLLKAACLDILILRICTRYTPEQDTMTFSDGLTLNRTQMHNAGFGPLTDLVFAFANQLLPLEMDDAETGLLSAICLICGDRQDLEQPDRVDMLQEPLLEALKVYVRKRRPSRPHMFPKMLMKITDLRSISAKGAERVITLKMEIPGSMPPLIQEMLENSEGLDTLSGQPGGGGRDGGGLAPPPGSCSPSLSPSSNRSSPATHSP
Nature of the data set: Gel retardation DNA-binding assay with RARα-expressing COS cell extracts. The conditions noted are these: for competition for RARα binding to 32P-labeled βRARE: unlabeled competitor oligonucleotide, COS cell extracts. Set-up: expressed in transfected cells; host or cells: COS cells (whole-cell extract). The protocol: as §1
Oligonucleotides listed in FIG. 3 were used as a probe to test specific DNA-binding of the RARα and TRβ in a gel retardation assay. On the βRARE, a faint background binding activity was detected in the mock transfected COS cell extract. […] In each case the result obtained from in vivo transactivation and in vitro DNA binding are consistent.
Using the mobility shift assay, the DNA-binding capacity of extracts from COS cells expressing TRβ and RARα to these sequences was also tested. […] This pattern is consistent with that of the in vivo activation (FIG. 4). A reciprocal pattern was obtained when the same oligonucleotides were used to compete RARα binding to the ^32P-labeled βRARE. […] This provides a striking example of the role of half-site spacing in generating a functional response element.

Data set [1] deals with F9 teratocarcinoma stem cells. Nature of the data set: CAT reporter transfection into RA responsive F9 teratocarcinoma stem cells. The following applies: RA 1 μM, 24 hours; no transfected receptor. It counts as cell-based, mouse. The protocol:
(§2) For cotransfection assays, a monkey kidney cell line CV-1 was kept in Dulbecco's modified Eagle's medium (DMEM) supplemented with 10% charcoal-resin double split calf bovine serum. Transfections were performed via calcium-phosphate precipitation method as described by Umesono, et al. in Cell 57: 1139-1146 (1989), with 0.5 μg of a pRS receptor expression plasmid, 1.0 μg of a reporter CAT plasmid, 5 μg of pRAS-βGAL [Umesono, et al., Cell 57: 1139-1146 (1989)] as an internal control, and 8.5 μg of carrier plasmid pUC19. The cells were transfected for 8 hours; after washing the DNA precipitates, the cells were then incubated for an additional 36 hours with or without the ligand (T3, 100 nM; RA, 1 μM; 1,25-(OH)2 vitamin D3, 100 nM). Cell extracts were prepared for βGAL and CAT assays, as described by Umesono, et al., supra. Transfection of F9 teratocarcinoma cells was carried out employing a similar method except the cells were incubated for 12 hours in the presence of the DNA precipitates, and the RA was added at 1 μM for another 24 hours before harvesting the cells. 2, 5, and 4 μg of the reporter, pRAS-βGAL, and pUC19 were used, respectively.
Similarly, when the same set of reporters as in FIG. 4 were transfected into F9 cells, only MHC-R (5-nucleotide spacer) and TREp are potent RAREs. In contrast, its RARE antecedents (MHC-N, MHC+1, MHC-T) are inert.

For data set [2], the target named is T3, Thyroid hormone receptor beta (TRβ), in CV-1 cells (Homo sapiens, UniProt P10828 P10828:1-461).
T3 sequence: T1 sequence (P10828 1-461)
Nature of the data set: cell_activity; T3 100 nM, CV-1. The conditions noted are these: tags: pRShTRβ, 5'-agct overhangs. The protocol: as §2, with “1139–1146” for “1139-1146”, “(T_3,” for “(T3,”, “1,25-(OH)_2” for “1,25-(OH)2”, “D_3,” for “D3,”
(§3) Starting from the MHC-TRE (MHC-N), a set of oligonucleotides (see FIG. 4a) were designed to introduce variations in the half-site spacing (MCH+1), the half-site sequence (MHC-T), or both (MHC-R). A single copy of these oligonucleotides was placed in the basal reporter construct ΔSV-CAT (designated by "(−)" in FIG. 4b), giving rise to a set of CAT reporter plasmids together with one encoding TREp. Parallel cotransfections with expression plasmids for TRβ or RARα were performed in CV-1 cells along with the ΔSV-CAT reporter containing a single copy of the variant HRE. After addition of hormone (RA, 1 μM; T_3, 100 nM), the cell extracts were assayed for the CAT activity by […] the β-galactosidase activity produced by cotransfected pRAS-βGAL. In the figure, numbers in the columns indicate the level of induction of CAT activity by the hormone.

Data set [3] has as its target T4, Retinoic acid receptor alpha (RARα), in CV-1 cells (Homo sapiens, UniProt P10276 P10276:1-462).
T4 sequence: T2 sequence (P10276 1-462)
Nature of the data set: cell_activity; RA 1 µM, CV-1. The following applies: tags: RSV or pRS expression vector; 5'-agct overhangs. The protocol:
as §2, with “1139–1146” for “1139-1146”, “(T_3,” for “(T3,”, “1,25-(OH)_2” for “1,25-(OH)2”, “D_3,” for “D3,”
as §3

Residue numbers refer to the chain shown, from its start.

As for “MHC-R: MHC-T with half-site spacing increased by one nucleotide (SEQ ID NO:24) (AGCTGGAGGTGAACAGGAGGTCAGCAAGCT; DNA, backbone not given here; double-stranded response element with agct overhangs, cloned into reporter plasmid)”, the “competition for TRβ binding (mobility shift assay)” value with TRβ is reported as “poor competitors”. The “competition for RARα binding to 32P-labeled βRARE” value in the data set with RARα is “effective competitors”. Besides, the “function as RARE in F9 cells” value in data set [1] is on record as “potent RAREs”.
For “MHC-T: MHC-N with the AGGACA half-site corrected to AGGTCA (SEQ ID NO:23) (AGCTGGAGGTGACAGGAGGTCAGCAAGCT; DNA, backbone not given here; double-stranded response element with agct overhangs, cloned into reporter plasmid)”, the “competition for TRβ binding (mobility shift assay)” value with TRβ is “efficient competition”. Further, the “competition for RARα binding to 32P-labeled βRARE” value with RARα is recorded as “fails to compete efficiently”. The “function as RARE in F9 cells” value in data set [1] is listed as “inert”.
On to “DR-5: perfect tandem repeat of AGGTCA hexamers separated by 5 nucleotides (SEQ ID NO:29) (AGCTTCAGGTCACCAGGAGGTCAGAGAGCT; DNA, backbone not given here; double-stranded DNA response element with agct overhangs, cloned into reporter)”, for which the “RARα binding to labeled oligonucleotide probe” value with RARα (gel retardation, RARα COS cell extract) was “specific protein-DNA complex”. Moreover, the “function as RARE in F9 cells” value in data set [1] is on record as “functional RARE”.

B1: MHC-N (dsDNA)
DNA 1: AGCTGGAGGTGACAGGAGGACAGCAAGCT
DNA 2: AGCTTGCTGTCCTCCTGTCACCTCCAGCT
Molecule B1 displayed an activity in data set [2] (label: 32P) of 10 fold induction.

B2: MHC+1 (dsDNA)
DNA 1: AGCTGGAGGTGAACAGGAGGACAGCAAGCT
DNA 2: AGCTTGCTGTCCTCCTGTTCACCTCCAGCT
Turning to B2, the activity in data set [3] is 4 fold induction; in data set [2] it was less than 2 fold induction.

B3: MHC-T (dsDNA)
DNA 1: AGCTGGAGGTGACAGGAGGTCAGCAAGCT
DNA 2: AGCTTGCTGACCTCCTGTCACCTCCAGCT
For the molecule B3, the activity is 2.6 fold induction in data set [3] and 15 fold induction in data set [2].

B4: MHC-R (dsDNA)
DNA 1: B2 DNA 1 with A21T
DNA 2: B2 DNA 2 with T10A
For the molecule B4, the activity in data set [3] stood at 7.4 fold induction.

B5: TREp (dsDNA)
DNA 1: AGCTTCAGGTCATGACCTGAGAGCT
DNA 2: AGCTCTCAGGTCATGACCTGAAGCT
Regarding B5, the figures for the activity in data set [3] and in data set [2] were 9 fold induction and 14 fold induction, respectively.
